Experiments:
AQ STING (G230A-R293Q) = biological target: T1, AQ STING (G230A-R293Q) (Homo sapiens, UniProt Q86WV6, G230A/H232R/R293Q); experiment: Differential Scanning Fluorimetry with AQ STING; assay type: binding; conditions: thermal shift, truncated human AQ STING 0.1 mg/ml, 150 μM CDN
T1 construct: truncated human WT STING or AQ STING (amino acid residues 140-343); 8xHis (N, cleaved yes); SUMO (N, cleaved yes); made in house; host or cells: E. coli Rosetta-gami B (DE3)
Procedure: (§1) Purified PCR products were cleaved with restriction enzymes BamHI (cat. # R0136S, NEB, Ipswich, USA) and NotI (cat. # R0189S, NEB, Ipswich, USA) and cloned into the pSUMO vector linearized with the identical enzymes.
(§2) DNase I (cat. # D5025, Sigma Aldrich, Czech Republic) and RNase A (cat. # R6513, Sigma Aldrich, Czech Republic) were added (final concentration 50 μg/ml) together with MgCl2 (final concentration 5 mmol·l^−1) to the homogenate and bacteria were lysed using French Press G-M™ High-Pressure Cell Press Homogenizer (1500 psi, 3 cycles). […] The resin was poured into a chromatography column, washed with 50 ml buffer A (50 mmol·l^−1 TrisCl (pH 8.0), 800 mmol·l^−1 NaCl, 3 mmol·l^−1 3-mercaptoethanol; 10% glycerol; 20 mmol·l^−1 imidazole) and 8-His-SUMO tagged STING proteins were eluted with 15 ml buffer A containing 300 mmol·l^−1 imidazole. […] Proteins were concentrated with Amicon® Ultra-15 10 K device (cat. # UFC901008, Merck Millipore, Billerica, USA) and flash frozen in liquid N2.
(§3) 20 μL solutions of the reaction mixtures were pipetted in triplicates into 96 well optical reaction plates and thermal denaturation of samples were performed on real time PCR cycler (LightCycler® 480 Instrument II—Roche, Basel, Switzerland). The first derivative of the thermal denaturation curves was performed to calculate denaturing temperatures of STING-CDN complexes and STING apoproteins. The thermal shift for each CDN was calculated by subtracting the average denaturing temperature of STING apoprotein from the average denaturing temperature of STING CDN complex.

WT STING [1] = biological target: T2, WT STING (Homo sapiens, UniProt Q86WV6, H232R); experiment: Digitonin assay using 293T wtSTING-FL reporter cells; assay type: cell-based; conditions: 293T wtSTING-FL cells, ISRE firefly luciferase reporter, digitonin buffer 30 min, then 5 hours
Excerpt: Two complementary oligonucleotides of the sequence […] […] […] […] […] […] […] The oligonucleotides were mixed in equal molar amounts, hybridized, and cleaved by restriction endonucleases HindIII (cat. #. R0104S, NEB, Ipswich, USA) and BglII (cat. # R0144S, NEB, Ipswich, USA). Ultimately, they were ligated into plasmid pGL4.27 (cat. # E6651, Promega, Madison, USA) linearized with the same enzymes. As result the sequence with four ISRE sites was placed upstream of the minimum promoter of firefly luciferase reporter gene.
After 5 minutes incubation at room temperature (RT), 250 μL of the mixture was added dropwise to the cells in one well. Cells were incubated 36 hours at 37° C. with 5% CO2, and then detached with 0.05% Trypsin and 0.22 g/L EDTA (both cat. # L0941, Biowest, Riverside, USA).
Transfected cells were seeded onto poly-D-lysine coated six well plates at density 50,000 cells per 1 cm^2 in DMEM medium with high glucose containing 10% heat inactivated FBS, 30 μg/mL blasticidin (cat. # ant-bl-05, InvivoGen, San Diego, USA), 0.06 mg/ml Penicillin G and 0.1 mg/ml Streptomycin Sulfate (both cat. #. L0018, Biowest, Riverside, USA). The medium was replenished every 3-4 days until visible colonies of cells resistant to blasticidin were formed.
Blasticidin resistant cells stably expressing WT STING were further transfected with pGL64.27-4×ISRE plasmid following the same procedure as described above. […] Homogeneous culture of stably double transfected cells was prepared by limiting dilution of cells in 96 well plates and wells with cells were selected that originated from a single cell.
The medium was removed next day and three fold serial dilutions of compounds in Digitonin buffer containing 50 mmol·l^−1 HEPES (cat. # H3375, Sigma Aldrich, Czech Republic) pH 7.0, 100 mmol·l^−1 KCl, 3 mmol·l^−1 MgCl2, 0.1 mmol·l^−1 DTT (cat. #D0632, Sigma Aldrich, Czech Republic), 85 mmol·l^−1 Sucrose (cat. # S7903, Sigma Aldrich, Czech Republic), 0.2% BSA (cat. # A2153, Sigma Aldrich, Czech Republic), 1 mmol·l^−1 ATP (cat. # A1852, Sigma Aldrich, Czech Republic), 0.1 mmol·l^−1 GTP (cat. # G8877, Sigma Aldrich, Czech Republic), and 10 μg/mL Digitonin A (cat. # D141, Sigma Aldrich, Czech Republic) were added to the cells. The buffer was removed after 30 minutes incubation at 37° C. with 5% CO2, the cells were washed once with 100 μl of cultivation medium, and 100 μl of medium was added to each well. The plates with cells were incubated for 5 hours at 37° C. with 5% CO2, 50 μl of the medium was removed and 30 μl of ONE-Glo™ Luciferase Assay System reagent (cat. # E6120, Promega, Madison, USA) was added to each well. Luminesce was read on Synergy H1 (Biotek, Winooski, USA).
Target sequence in this assay (Q86WV6 whole entry H232R): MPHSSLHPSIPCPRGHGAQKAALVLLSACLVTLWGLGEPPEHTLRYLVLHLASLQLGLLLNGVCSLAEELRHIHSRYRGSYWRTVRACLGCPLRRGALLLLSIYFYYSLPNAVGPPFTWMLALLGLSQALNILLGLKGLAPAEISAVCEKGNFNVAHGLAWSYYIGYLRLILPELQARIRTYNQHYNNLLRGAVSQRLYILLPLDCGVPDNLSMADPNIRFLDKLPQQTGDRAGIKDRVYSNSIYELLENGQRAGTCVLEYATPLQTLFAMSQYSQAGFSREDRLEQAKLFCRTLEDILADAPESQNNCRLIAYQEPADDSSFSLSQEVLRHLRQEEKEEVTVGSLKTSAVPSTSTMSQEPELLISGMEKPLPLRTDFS

WT STING [2] = biological target: T2, WT STING; experiment: Differential Scanning Fluorimetry with WT STING; assay type: binding; set-up: truncated human WT STING or AQ STING (amino acid residues 140-343); 8xHis (N, cleaved yes); SUMO (N, cleaved yes); made in house; host or cells: E. coli Rosetta-gami B (DE3); conditions: thermal shift, truncated human WT STING 0.1 mg/ml, 150 μM CDN
Procedure: as §1, §2, §3
Target sequence in this assay (Q86WV6 140-343 H232R): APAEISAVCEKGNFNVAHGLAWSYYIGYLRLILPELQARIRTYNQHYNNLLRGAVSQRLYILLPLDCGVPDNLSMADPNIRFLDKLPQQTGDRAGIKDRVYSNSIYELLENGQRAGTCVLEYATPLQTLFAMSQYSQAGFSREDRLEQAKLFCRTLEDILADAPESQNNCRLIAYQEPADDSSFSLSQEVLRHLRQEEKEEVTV

T1 sequence (Q86WV6 140-343 G230A/H232R/R293Q): as the sequence (Q86WV6 140-343 H232R) above, with G91A, R154Q counted along it

Row | Compound | DSF ΔTm AQ STING (AQ STING (G230A-R293Q)) [°C] | EC50 (WT STING [1]) [nM] | DSF ΔTm WT STING (WT STING [2]) [°C]
1 | Nc1nc2c(ncn2[C@@H]2O[C@@H]3COP(=O)(O)O[C@@H]4[C@H](O)[C@@H](COP(=O)(O)O[C@@H]2[C@@H]3O)O[C@H]4n2cnc3c(N)ncnc32)c(=O)[nH]1 [2′2′-cGAMP, reference compound] | 19.4 | 30 | 11.5
2 | Nc1ncnc2c1ncn2[C@@H]1O[C@@H]2COP(=O)(O)O[C@@H]3[C@H](F)[C@@H](COP(=O)(O)CO[C@@H]1[C@@H]2F)O[C@H]3n1cnc2c(N)ncnc21 [Example 8, (1S,6R,8R,9S,15R,17R,18R,19R)-8,17-bis(6-amino-9H-purin-9-yl)-18,19-difluoro-3,12-dihydroxy-2,4,7,10,13,16-hexaoxa-3,12-diphosphatricyclo[13.2.1.1^6,9]nonadecane 3,12-dioxide] | 11.5 | 1100 | 3.6
3 | Nc1ncnc2c1ncn2[C@@H]1O[C@@H]2COP(=O)(O)CO[C@@H]3[C@@H](O)[C@@H](COP(=O)(O)CO[C@@H]1[C@H]2O)O[C@H]3n1cnc2c(N)ncnc21 [Example 7, (1R,7R,9R,10R,16R,18R,19S,20S)-9,18-bis(6-amino-9H-purin-9-yl)-4,13,19,20-tetrahydroxy-2,5,8,11,14,17-hexaoxa-4,13-diphosphatricyclo[14.2.1.1^7,10]icosane 4,13-dioxide] | 0.0 | > 50000 | 0.0
4 | Nc1ncnc2c1ncn2[C@@H]1O[C@@H]2COP(=O)(O)O[C@H]3[C@@H](O)[C@H](n4cnc5c(N)ncnc54)O[C@@H]3COP(=O)(O)O[C@H]2[C@H]1O [3′3′-c-di-AMP, reference compound] | 9.3 | 300 | 2.6
5 | Nc1ncnc2c1ncn2[C@@H]1O[C@@H]2COP(=O)(O)CO[C@H]3[C@H](O)[C@@H](COP(=O)(O)CO[C@H]1[C@@H]2O)O[C@H]3n1cnc2c(N)ncnc21 [Example 6, (1S,7R,9R,10S,16R,18R,19R,20R)-9,18-bis(6-amino-9H-purin-9-yl)-4,13,19,20-tetrahydroxy-2,5,8,11,14,17-hexaoxa-4,13-diphosphatricyclo[14.2.1.1^7,10]icosane 4,13-dioxide] | −0.3 | > 50000 | 0.0
6 | Nc1ncnc2c1ncn2[C@@H]1O[C@@H]2COP(=O)(O)CO[C@H]3[C@H](O)[C@@H](COP(=O)(O)O[C@@H]1[C@@H]2O)O[C@H]3n1cnc2c(N)ncnc21 [Example 5, (1R,6R,8R,9S,15R,17R,18R,19R)-8,17-bis(6-amino-9H-purin-9-yl)-3,12,18,19-tetrahydroxy-2,4,7,10,13,16-hexaoxa-3,12-diphosphatricyclo[13.2.1.1^6,9]nonadecane 3,12-dioxide] | 0.2 | > 50000 | −0.9
7 | Nc1nc2c(ncn2[C@@H]2O[C@@H]3COP(=O)(O)COC4C(O)[C@@H](COP(=O)(O)OC2C3O)O[C@H]4n2cnc3c(N)ncnc32)c(=O)[nH]1 (stereo partly drawn) [Example 3, 2-amino-9-((1R,6R,8R,9R,15R,17R,18R,19R)-8-(6-amino-9H-purin-9-yl)-3,12,18,19-tetrahydroxy-3,12-dioxido-2,4,7,10,13,16-hexaoxa-3,12-diphosphatricyclo[13.2.1.1^6]9nonadecan-17-yl)-1,9-dihydro-6H-purin-6-one] | 19.0 | 50 | 12.0
8 | Nc1nc2c(ncn2[C@@H]2O[C@@H]3COP(=O)(O)O[C@H]4[C@@H](O)[C@H](n5cnc6c(=O)[nH]c(N)nc65)O[C@@H]4COP(=O)(O)O[C@H]3[C@H]2O)c(=O)[nH]1 [3′3′-c-di-GMP, reference compound] | 7.7 | 5800 | 2.6
9 | Nc1nc2c(ncn2[C@@H]2O[C@@H]3COP(=O)(O)CO[C@@H]4[C@H](F)[C@@H](COP(=O)(O)O[C@@H]2[C@@H]3F)O[C@H]4n2cnc3c(N)ncnc32)c(=O)[nH]1 [Example 9, 2-amino-9-((1S,6R,8R,9S,15R,17R,18R,19R)-8-(6-amino-9H-purin-9-yl)-18,19-difluoro-3,12-dihydroxy-3,12-dioxido-2,4,7,10,13,16-hexaoxa-3,12-diphosphatricyclo[13.2.1.1^6,9]nonadecan-17-yl)-1,9-dihydro-6H-purin-6-one] | 22.9 | 30 | 15.2
10 | Nc1nc2c(ncn2[C@@H]2O[C@@H]3COP(=O)(O)CO[C@@H]4[C@H](O)[C@@H](COP(=O)(O)CO[C@@H]2[C@@H]3O)O[C@H]4n2cnc3c(=O)[nH]c(N)nc32)c(=O)[nH]1 [Example 4, 9,9′-((1R,7R,9R,10R,16R,18R,19R,20R)-4,13,19,20-tetrahydroxy-4,13-dioxido-2,5,8,1 1,14,17-hexaoxa-4,13-diphosphatricyclo[14.2.1.1^7,10]icosane-9,18-diyl)bis(2-amino-1,9-dihydro-6H-purin-6-one)] | 0.3 | > 50000 | 0.3
11 | Nc1nc2c(ncn2[C@@H]2O[C@@H]3COP(=O)(O)O[C@@H]4[C@H](O)[C@@H](COP(=O)(O)CO[C@@H]2[C@@H]3O)O[C@H]4n2cnc3c(N)ncnc32)c(=O)[nH]1 [Example 2, 2-amino-9-((1R,6R,8R,9R,15R,17R,18R,19R)-17-(6-amino-9H-purin-9-yl)-3,12,18,19-tetrahydroxy-3,12-dioxido-2,4,7,10,13,16-hexaoxa-3,12-diphosphatricyclo[13.2.1.1^6,9]nonadecan-8-yl)-1,9-dihydro-6H-purin-6-one] | 16.5 | 150 | 9.0

From patent US20190322697A1, “2'2'-CYCLIC DINUCLEOTIDES” (Institute of Organic Chemistry and Biochemistry, ASCR, V.V.I, priority 2018, published 2019)
